Among the data in ChEMBL document CHEMBL1681773, “Toxic polyketides produced by Fusarium sp., an endophytic fungus isolated from Melia azedarach” (Bioorg Med Chem Lett, 2011) are mortality values, retold here.

Each structure is given as a SMILES string.

This series in a line: Toxicity in brine shrimps larvae assessed as mortality at 10 ug/ml after 24 hrs. In kind it is organism-based. To be noted: artemia, brine shrimp larvae; read-out: Activity.

`C[C@H]1C/C=C/[C@@H](O)[C@@H](O)CC/C=C/c2cc(O)cc(O)c2C(=O)O1` [AIGIALOMYCIN D]: the mortality at 24 h, 10 ug/ml turned out to be 76.7%.
To `C[C@H](O)C/C=C/CCCCc1cc2cc(O)cc(O)c2c(=O)o1` [FUSARIUMIN] belongs 78.2%.
The result for `C[C@@H]1C[C@@H](O)/C=C\[C@H](O)CCC(=O)Cc2c(Cl)c(O)cc(O)c2C(=O)O1` [POCHONIN N] reads 82.8%.
